Reference: patent publication US9051326B2, “Pyrazoline derivatives and their use as selective androgen receptor modulators” (NOVARTIS AG, priority 2011, dated 2015)
Like-named read-outs stand apart in the source and are kept apart here.

Assays:
androgen receptor (AR) = target: T1, androgen receptor (AR) (Homo sapiens, UniProt P10275); assay: AR transcriptional activation luciferase reporter assay in C2C12 cells (Test 1); format: cell-based
T1 construct: transfecting C2C12 cells with a plasmid containing full-length AR along with an AR response element linked to luciferase; expressed in transfected cells; host or cells: mouse myoblastic C2C12 cells (ATCC CRL-1772), transient transfection with Lipofectamine 2000
T1 sequence (P10275 1-920): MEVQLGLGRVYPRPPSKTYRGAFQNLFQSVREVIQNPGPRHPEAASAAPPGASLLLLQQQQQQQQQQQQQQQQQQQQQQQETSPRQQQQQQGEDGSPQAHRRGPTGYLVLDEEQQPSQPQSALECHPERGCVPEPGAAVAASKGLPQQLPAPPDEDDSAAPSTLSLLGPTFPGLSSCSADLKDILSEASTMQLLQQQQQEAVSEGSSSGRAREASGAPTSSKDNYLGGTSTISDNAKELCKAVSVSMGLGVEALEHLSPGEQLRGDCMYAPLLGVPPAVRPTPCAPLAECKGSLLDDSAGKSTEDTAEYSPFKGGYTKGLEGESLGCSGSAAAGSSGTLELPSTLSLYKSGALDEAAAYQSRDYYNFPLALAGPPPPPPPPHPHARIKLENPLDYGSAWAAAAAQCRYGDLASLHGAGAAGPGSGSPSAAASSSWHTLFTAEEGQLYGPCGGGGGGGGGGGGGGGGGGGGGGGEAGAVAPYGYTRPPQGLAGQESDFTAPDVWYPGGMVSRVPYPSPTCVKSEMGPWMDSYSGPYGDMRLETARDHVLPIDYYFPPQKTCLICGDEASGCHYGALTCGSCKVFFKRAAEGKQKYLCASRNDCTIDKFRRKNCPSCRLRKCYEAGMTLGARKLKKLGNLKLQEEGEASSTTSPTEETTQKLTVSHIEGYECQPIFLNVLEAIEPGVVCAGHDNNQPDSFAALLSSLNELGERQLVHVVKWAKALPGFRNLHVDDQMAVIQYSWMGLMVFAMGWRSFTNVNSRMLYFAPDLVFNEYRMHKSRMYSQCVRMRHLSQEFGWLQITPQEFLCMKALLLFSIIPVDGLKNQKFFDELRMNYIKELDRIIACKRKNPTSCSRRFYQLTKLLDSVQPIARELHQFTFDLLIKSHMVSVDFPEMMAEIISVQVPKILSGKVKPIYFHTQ
Protocol: A suitable assay to determine the ability of a ligand to transcriptionally activate androgen receptor (AR) is carried out using mouse myoblastic C2C12 cells. The assay involves transfecting C2C12 cells with a plasmid containing full-length AR along with an AR response element linked to luciferase (2XIDR17). The luminescence read-out at the end of the assay is measured using Victor 3 and is a direct measure of the transcriptional activity. The assay has been validated using the reference compound, BMS-564929, for which EC50 values have been reported in a similar set-up. Other tool compounds that have been used for assay validation are GSK-420A, Andarine, putative Ostarine, and LGD-2226.
C2C12 cells were obtained from ATCC (Cat # CRL-1772) and maintained in DMEM modified to contain 4 mM L-glutamine, 4.5 g/L glucose, 1 mM sodium pyruvate and 1.5 g/L sodium bicarbonate and 10% FBS.
AR-FL in pcDNA 3.1(+) and 2XIDR17 in pGL4.26 plasmids prepared using Genelute plasmid miniprep kit from Sigma Cat # PLED35
• C2C12 cells were seeded in a 96-well plate in DMEM (Dulbecco's Modified Eagle Medium) without phenol red and containing 10% CS-FBS (Charcoal-stripped Fetal Bovine Serum) at 8000 cells/well. • The next day, cells were transfected with an equimolar ratio of (Androgen Receptor-Full length) AR-FL and 2XIDR17-Luciferase at a total plasmid concentration of 200 ng/well using Lipofectamine 2000 following manufacturer's protocol. • For the transfection, 83 ng of AR-FL and 117 ng of 2XIDR17-Luciferase were in 12.5 μl of OptiMEM—Mix A. 0.4 μl of Lipofectamine 2000 was added to 12.5 μl of OptiMEM and incubated for 5 min at room temperature—Mix B. The two mixes A and B were mixed and incubated at room temperature for an additional fifteen minutes. An additional 50 μl of OptiMEM was added, gently mixed and this mixture was added to the cells in the 96-well plate. The above quantities are requirements per well of a 96-well plate. Master mixes were made for the entire plate, with proportional quantity of reagents being used. • 5 h after transfection, compounds were added to the wells in DMEM without phenol red and containing 10% CS-FBS, maintaining a final DMSO concentration of 0.5%. A typical dose response curve starts at 10 μM and includes a 7-point, log dilution, done in triplicates. • After overnight incubation with the compounds, 100 ul of working solution of Steadyglow reagent was added to the wells. • The plates were placed in a shaker for 15 min at the end of which the lysate containing luciferase was transferred to a white flat-bottom plate and read under a luminescence setting in Victor. • Background subtracted counts (Luminescence from DMSO control wells is considered the background) are used to calculate percentage activity, expressed relative to activity with 1 μM (Dihydrotestosterone) DHT (at least two sets of triplicates for 1 μM DHT are included per plate). Data Fitting: • The EC50 curves for the compounds for 8 compound concentrations were fitted by the respective function using non-linear least-squares regression in Graphpad Prism 4.0 (Graphpad Software, San Diego, Calif., USA).

[1] = tested on: orchidectomized male Wistar rats; assay: In vivo modified Hershberger assay (Test 2); design: species or system rat; details: for luteinizing hormone (LH) levels / weights of levator ani compared to prostate: 14 days treatment; for luteinizing hormone (LH) levels: in comparison to ORX animals; for plasma drug concentration: day 15, 3 hours after last dose; for weights of levator ani compared to prostate: orchidectomized male rats
Protocol: The test article Testosterone Propionate is dissolved using 10% ethanol, 90% corn oil. Ostarine is suspended in 1% CMC, 0.1% Tween-80, water. Compounds of examples 1 and 5 are dissolved in 50% PEG 200 and 50% of saline. Ostarine is administered orally at 1 ml/kg volume. Testosterone Propionate, Compounds of examples 1 and 5 are administered subcutaneously to 14 days prior orchidectomized male rats at 1 ml per kg body weight for a period of 14 days. Each group of 6 rats receives dosages of 0.01, 0.1, 1 and 10 mg/kg. 6 animals each serves as sham control and ORX control and are administered vehicle at 1 ml/kg.
Testosterone Propionate is subcutaneously administered at doses of 0.03, 0.1, 0.3, 1.3 and 10 mg/kg. Ostarine is given orally at doses of 0.001, 0.003, 0.01, 0.03, 0.1, 0.3, 1.3 and 10 mg/kg.
The various investigations like mortality, clinical signs, body weight, food consumption, drug concentration analysis (day 15), clinical pathology and gross pathology parameters are performed on all groups.
Evaluation of Testosterone Propionate, Ostarine, examples 1 and 5 in modified Hershberger assay in male wistar rats was conducted at the Department of Preclinical Biology, Aurigene Discovery Technologies Ltd., Bangalore, India.

SMILES	weights of levator ani compared to prostate [1]	EC50 (androgen receptor (AR)) [nM]	also measured
CO[C@@H]1C(c2ccc(C#N)c(Cl)c2C)=NN2CC[C@H](O)[C@@H]12 [Example 1, 2-chloro-4-((3S,3aS,4S)-4-hydroxy-3-methoxy-3a,4,5,6-tetrahydro-3H-pyrrolo[1,2-b]pyrazol-2-yl)-3-methylbenzonitrile]	dose dependent selective increase in weights of levator ani compared to prostate		EC50 (androgen receptor (AR); mouse myoblastic C2C12 cells transfected with AR-FL and 2XIDR17-luciferase, read-out: Biological activity (C2C12 cell) EC50): 0.5 nM; luteinizing hormone (LH) levels [1]: concurrent decrease of LH levels; plasma drug concentration [1]: dose dependent increase
CCO[C@@H]1C(c2ccc(C#N)c(Cl)c2C)=NN2CC[C@H](O)[C@@H]12 [Example 5, 2-chloro-4-((3S,3aS,4S)-3-ethoxy-4-hydroxy-3a,4,5,6-tetrahydro-3H-pyrrolo[1,2-b]pyrazol-2-yl)-3-methylbenzonitrile]	dose dependent selective increase in weights of levator ani compared to prostate	1.2	luteinizing hormone (LH) levels [1]: concurrent decrease of LH levels; plasma drug concentration [1]: dose dependent increase
Cc1c(C2=NN3CC[C@@H](F)[C@H]3[C@@H]2OCCF)ccc(C#N)c1Cl [Example 23, 2-chloro-4-((3S,3aR,4R)-4-fluoro-3-(2-fluoroethoxy)-3a,4,5,6-tetrahydro-3H-pyrrolo[1,2-b]pyrazol-2-yl)-3-methylbenzonitrile]		0.41	
COCCO[C@@H]1C(c2ccc(C#N)c(Cl)c2C)=NN2CC(F)(F)C[C@@H]12 [Example 24, 2-chloro-4-((3S,3aS)-5,5-difluoro-3-(2-methoxyethoxy)-3a,4,5,6-tetrahydro-3H-pyrrolo[1,2-b]pyrazol-2-yl)-3-methylbenzonitrile]		5.6	
CO[C@@H]1C(c2ccc(C#N)c(Cl)c2C)=NN2C[C@H](O)[C@H](O)[C@@H]12 [Example 25, 2-chloro-4-((3S,3aS,4R,5S)-4,5-dihydroxy-3-methoxy-3a,4,5,6-tetrahydro-3H-pyrrolo[1,2-b]pyrazol-2-yl)-3-methylbenzonitrile]		51.2	
COCCO[C@@H]1C(c2ccc(C#N)c(Cl)c2C)=NN2C[C@H](O)C[C@@H]12 [Example 26]		158	
COCCO[C@@H]1C(c2ccc(C#N)c(Cl)c2C)=NN2C[C@@H](F)C[C@@H]12 [Example 27]		65.8	
COCCO[C@@H]1C(c2ccc(C#N)c(Cl)c2C)=NN2CC(=O)C[C@@H]12 [Example 28]		175	
COCCCO[C@@H]1C(c2ccc(C#N)c(Cl)c2C)=NN2C[C@H](O)C[C@@H]12 [Example 29]		40	
COCCCO[C@@H]1C(c2ccc(C#N)c(Cl)c2C)=NN2CC(=O)C[C@@H]12 [Example 30]		56	
COCCCO[C@@H]1C(c2ccc(C#N)c(Cl)c2C)=NN2CC(F)(F)C[C@@H]12 [Example 31]		11.4	
C[C@](O)(COc1ccc(C#N)cc1)C(=O)Nc1ccc(C#N)c(C(F)(F)F)c1 [Ostarine, reference compound]	dose dependent selective increase in weights of levator ani compared to prostate		luteinizing hormone (LH) levels [1]: concurrent decrease of LH levels; plasma drug concentration [1]: dose dependent increase
CCC(=O)O[C@H]1CC[C@H]2[C@@H]3CCC4=CC(=O)CC[C@]4(C)[C@H]3CC[C@]12C [Testosterone Propionate, reference compound]	did not show any selectivity on levator ani versus prostate		
